The results in this text go back to US9045490B2, “Use of parthenolide derivatives as antileukemic and cytotoxic agents” (University of Kentucky, priority 2003, dated 2015).

Data set [1] relates to breast cancer cell line mdl-231. Put plainly: Clonogenic assay. Type of data set: cell-based. Conditions: mdl-231, 2 μm concentration (parthenolide: similar dosage ranges).
For data set [2], the system named is AML cells (AML stem cell compartment). As to the kind of experiment: Human-mouse xenograft: NOD/SCID engraftment of AML cells treated in vitro. Conditions: 7.5 micromolar in vitro for 12-18 hours, bone marrow analysed after 6-8 weeks (CD45). The format is in vivo, human cells in NOD/SCID mice. Here is the method:
(§1) To assess the effect of parthenolide on primary human stem cell populations, experiments were conducted using transplantation into immune deficient NOD/SCID mice. […] For each experiment, cryopreserved mononuclear cell specimens from normal or AML donors were thawed, and treated in vitro with 7.5 micromolar parthenolide for 12-18 hours. Following culture, 5-10 million cells/animal were injected intravenously into sublethally irradiated (300 Rad) NOD/SCID mice. After 6-8 weeks, animals were sacrificed and bone marrow was analyzed for the presence of human cells using flow cytometry as previously described (Guzman et al., Proc Natl Acad Sci USA 2002; 99: 16220-162253). Human specific antibodies for CD45 were used to assess the level of total engraftment.
In general terms: A xenograft is tissue or cells of one species grown in another, often human tumour cells in immunodeficient mice.

The subject of data set [3] is breast cancer cell line hbl-100. As to the kind of experiment: Clonogenic assay. Type of data set: cell-based. Particulars: hbl-100, 2 μm concentration (parthenolide: similar dosage ranges).
In data set [4] the test system is lung cancer cell line A549. Put plainly: MTS-PMS cellular proliferation assay. Particulars: Homo sapiens. The format is cell-based. How it is done:
(§2) A 96-well U-bottomed plate (Becton Dickinson Labware, Franklin Lakes, N.J.) at a concentration of 5,000 cells per 50 microliters […] of media was incubated in 5% CO2 at 37° C. for 24 hours. Varying compound concentrations in […] of media were added to the media 24 hours later. Colorimetric readings were obtained using the MTS/PMS system and an ELISA plate reader, after 48 hours of exposure to DMAPT. The readings obtained for each concentration tested were from an average of eight wells. Each experiment was expressed as a percentage of the solvent control and completed at least three times with consistent results. The results presented are an average of three experiments. The hormone refractory prostate cancer cell line CWR22Rv1 was treated with increasing concentrations of parthenolide and DMAPT. for three hours Both parthenolide and DMAPT reduced cellular proliferation by 50% at 5 μm in the CWR22 MTS-PMS assay. Cellular proliferation was also measured in the MTS-PMS assay using four lung cancer cell lines treated with parthenolide and derivatives PIPT ((11S,11,13-dihydro,13-(piperidin-1-yl)parthenolide), 4MEPT (11S,11,13-dihydro,13-(4-methylpiperidin-1-yl)parthenolide) and MAPT (11S,11,13-dihydro,13-dimethylaminoparthenolide). Parthenolide and its derivatives inhibited cellular proliferation in a dose dependent manner between 2 and 10 μM with 70% inhibition at 10 μM in A549, 50% in H460, 40% in H-23 and 40% in H522 (FIGS. 2-5).

The subject of data set [5] is lung cancer cell line H-23. Put plainly: MTS-PMS cellular proliferation assay. The format is cell-based. How it is done:
as §2

Data set [6] has as its system lung cancer cell line H460. Put plainly: MTS-PMS cellular proliferation assay. Particulars: Homo sapiens, NCI-H460. The format is cell-based. How it is done: as §2
For data set [7], the system named is hormone refractory prostate cancer cell line CWR22Rv1. As to the kind of experiment: MTS-PMS cellular proliferation assay. Type of data set: cell-based. Conditions: at 5 μm, CWR22 MTS-PMS assay. How it is done:
as §2

Data set [8] concerns lung cancer cell line H522. As to the kind of experiment: MTS-PMS cellular proliferation assay. Particulars: Homo sapiens, NCI-H522. The format is cell-based. Here is the method: as §2
For data set [9], the system named is normal hematopoietic stem cells. Put plainly: Human-mouse xenograft: NOD/SCID engraftment of normal donor cells treated in vitro. Type of data set: in vivo. Particulars: 7.5 micromolar in vitro for 12-18 hours, bone marrow analysed after 6-8 weeks (CD45). Here is the method: as §1
In data set [10] the test system is radiation sensitive cell line A549. Put plainly: Radiation sensitisation by pretreatment, survival fraction. Conditions: A549, 2.5 micromolar pretreatment. Type of data set: cell-based. The source says: The radiation sensitive cell line A549 was pretreated with parthenolide concentrations ranging from 0 to 2.5 micromolar. The cells were then subjected to ionizing radiation doses ranging from 0-6Gy and survival fraction of the cells determined. […] Cells not receiving pre-treatment with parthenolide had greater than 50% survival fraction at the highest radiation dose of 6Gy and over 90% survival at 2Gy.

Data set [11] in a line: Oral bioavailability in mice: plasma level by LC-MS. Type of data set: in vivo. Particulars: mouse, 40 mg/kg oral, LC-MS, average of 5 mice, read-out: plasma level one hour after oral gavage. Here is the method: Preliminary in vivo work was conducted to determine the bioavailability and toxicity of this agent in mice.
The test system of data set [12] is primary acute myelogenous leukemia (AML) cells. Put plainly: Assay for antileukemic activity (Annexin V/7-AAD apoptosis analysis by flow cytometry). Type of data set: cell-based. Conditions: 10 μM, 24 hours of culture, normalized to untreated control. How it is done:
For apoptosis analysis, one million primary acute myelogenous leukemia (AML) cells were washed with cold PBS and resuspended in 200 microliters of Annexin binding buffer (10 mM HEPES/NaOH pH 7.4; 140 mM NaCl; 2.5 mM CaCl2). Annexin V-FITC (Pharmingen) and 0.25 mg/mL 7-AAD (7-aminoactinomycin D, Molecular Probes, CA) were added and the tubes were incubated at room temperature in the dark for 15 minutes. Cells were then diluted with 200 microliters of Annexin binding buffer and analyzed immediately by flow cytometry. Viable cells were identified as failing to label with Annexin V or 7-AAD. Cells beginning to die label with Annexin V, and as membrane integrity is lost, will also label with 7-AAD. […] Data are normalized to untreated control specimens. The data are in Table 1 for aminoparthenolide derivatives and Table 2 for the salts of some aminoparthenolides.
On the technique in general: In flow cytometry, cells or beads pass a laser one at a time.

Data set [13] deals with breast cancer cell line 436. Put plainly: Clonogenic assay. Type of data set: cell-based. Conditions: 436 cells, 2 μm concentration (parthenolide: similar dosage ranges).
Data set [14] relates to Healthy human bone marrow cells. As to the kind of experiment: Cytotoxicity to healthy bone marrow cells (same Annexin V/7-AAD assay). Type of data set: cell-based. Conditions: 10 μM. How it is done:
For apoptosis analysis, one million primary acute myelogenous leukemia (AML) cells were washed with cold PBS and resuspended in 200 microliters of Annexin binding buffer (10 mM HEPES/NaOH pH 7.4; 140 mM NaCl; 2.5 mM CaCl2). Annexin V-FITC (Pharmingen) and 0.25 mg/mL 7-AAD (7-aminoactinomycin D, Molecular Probes, CA) were added and the tubes were incubated at room temperature in the dark for 15 minutes. Cells were then diluted with 200 microliters of Annexin binding buffer and analyzed immediately by flow cytometry. Viable cells were identified as failing to label with Annexin V or 7-AAD. Cells beginning to die label with Annexin V, and as membrane integrity is lost, will also label with 7-AAD. For each parthenolide derivative, the percentage of viable cells was determined after 24 hours of culture at a 10 micromolar concentration. Data are normalized to untreated control specimens. The data are in Table 1 for aminoparthenolide derivatives and Table 2 for the salts of some aminoparthenolides.
Healthy human bone marrow cells were used in the above assay to test the cytotoxicity of parthenolide. Eighty-five percent of the normal cells survived 10 μM of parthenolide. All the aminoparthenolides evaluated afforded results similar to parthenolide, i.e. the survival rate of healthy human bone marrow cells was over 85% at a concentration of 10 μM.

Molecules are shown by their SMILES.

For the compound `C=C1C(=O)O[C@@H]2[C@H]3O[C@]3(C)CC/C=C(\C)CC[C@@H]12` [Parthenolide], the inhibition of proliferation result in data set [1], in data set [3] and in data set [13] was “reduced proliferation” throughout. The “level of engraftment of treated AML cells in NOD/SCID mice” value in data set [2] is recorded as “dramatically reduced”. The inhibition (in general, the drop in the measured response relative to a control, in per cent) at 10 µM in [4] is 70%; in [5], 40%; in data set [6] it was 50%; in [8], 40%. Moreover, the “reduction of cellular proliferation” value in [7] came to 50%. Further, the “level of engraftment of treated normal cells in NOD/SCID mice” value in [9] was “no reduction in engraftment”. For the same compound, the survival fraction is listed as 10% in data set [10] (2Gy) and “less than 1%” in [10] (6Gy). In addition, the concentration at 1 h in [11] was ~0.2 µM. The Antileukemic activity in [12] is recorded as 10 μM, 84%. Also, in data set [14], the “survival rate of healthy human bone marrow cells” value is listed as “Eighty-five”.
